In patent publication US5371186A, “Synthetic peptides for detoxification of bacterial endotoxins and for the prevention and treatment of septic shock” (priority 1992, dated 1994):

Experiments:
[1] = same species of mice (Swiss Webster); cited from earlier work
[2] = stoichiometry of the complexes with LPS by amino acid analysis; assay type: binding; conditions: 10 μg B. Pertussis LPS (2.64 nmoles Lipid A) + 10 μg peptide
Experimental: Quantitation of the amount of precipitated peptides present in the complexes with PLS of B. pertussis has been done by amino acid analysis after acid hydrolysis (by 6 M HCl) of the complexes recovered by centrifugation at 3,000 rpm×15 minutes. In Table III, the stoichiometry of some complexes is reported as calculated by the ratio (on molar basis) between the amount of each peptide and the amount of Lipid A present in the structure of LPS used in the experiments:
*Complexes formed between 10 μg of B. Pertussis LPS (equivalent to 4.5
μg of Lipid A of 2.64 nmoles) and 10 μg of peptide (twice the amoun
corresponding to the saturation point found for Polymyxin "B" in the
**Values represent the average of two separate experiments of amino acid
analysis after acid hydrolysis of the recovered complexes.

Salmonella Typhi = assay: antibiotic activity, zone of inhibition on BHI plates; assay type: cell-based, S. typhi; conditions: 18 hours
Experimental: (§1) The following experiments compared the antibiotic activity of Polymyxin "B" with various peptides of the invention.
(§2) The tests were performed on BHI plates with liquid cultures of the test organism to give a lawn. Each peptide was diluted in water and placed on sterile Wathmam 3M disks on the surface of the plate. The plates were dried and incubated at 37° C. The zone of inhibition was measured after 18 hours: […]

Haemophilus influenzae = assay: as above; assay type: cell-based, H. influenzas; conditions: 18 hours
Experimental: as §1, §2

[3] = direct competition with Polymyxin "B" (Affinity constant, Selectivity); assay type: binding, B. pertussis
From the text: To further characterize the binding activity of the synthetic peptides for Lipid A of endotoxin, experiments of direct competition with Polymyxin "B" have been set-up in order to evaluate the Affinity constant value of Polymyxin "B" for the toxic moiety of endotoxin and ultimately to calculate the Selectivity of the synthetic peptide analogs (ratio on molar basis, between the affinity constant value of a given peptide and that of Polymyxin "B" for Lipid A).

[4] = system: spleen cells from unimmunized healthy SJL/J mice; assay: LPS-induced polyclonal B-cell activation, 3H-thymidine incorporation; assay type: cell-based; conditions: LPS 50 μg/ml, LPS alone 22,737, non stimulated 2,449 cpm
Experimental: Cells were cultured in RPMI medium containing 1.0% normal mouse serum at 37° C. for 3 days. Cultures were pulsed with 1.0 μi/well of 3H-thymidine for 16 hours and harvested for counting on an LS betaplate counter. The results were as follows:
cpm measured with non stimulated cultures = 2,449.

[5] = prevention of endotoxin-induced death in CD1 mice sensitized with Actinomycin D; assay type: in vivo, mice (Strain CD1); conditions: 0.1 mg/mouse i.v., 1 μg endotoxin i.p.; for Mice surviving: 20 mice per group
Experimental: Prevention of endotoxin-induced death in mice, has been achieved by intravenous injection of the peptides of the invention. For this experiment, a strain of mice highly sensitive to the lethal activity of bacterial endotoxin has been used. Mice sensitized with Actinomycin D (Strain CD1) show a high sensitivity to extremely low doses of endotoxin. A dose as low as 1 μg of endotoxin per mouse (about 40 μg/kg of body weight) is able to completely kill a population of mice within 24-48 hours.
Groups of 20 mice CD1 have been treated intravenously with the peptides of the invention, with a single dose of 0.1 mg peptide, solubilized in sterile saline, per mouse. Thirty minutes later, mice were challenged by intraperitoneal injection of 1 μg of endotoxin purified from E. Coli strain 055-B5. Surviving mice were recorded every 24 hours during a seven days-period of observation. […] Negative controls received an intravenous injection of saline.
There were 20 mice per group. Mice surviving at each of the seven 24 hours observation periods are listed. The % survival appears in parenthesis. P expresses the level of statistical significance calculated by "t-Test" for each molecule compared to the treatment with saline, considering the total survival rate in each group.

Vibrio cholerae = assay: antibiotic activity, zone of inhibition on BHI plates; assay type: cell-based, V. choleras; conditions: 18 hours
Experimental: as §1, §2

[6] = Limulus (LAL) test, inhibition of LPS-induced gelation; assay type: biochemical, B. Pertussis; conditions: LPS/Pept (w/w) 1; LPS 0.1 μg
From the text: As a consequence of this high-affinity binding to the Lipid A moiety of endotoxins, most of the synthetic peptide analogs have shown the ability to detoxify endotoxins as evidenced by in vitro as well as in vivo analysis. The in vitro test used, as measure of detoxification, the inhibition of the enzymatic cascade leading to the coagulation of the Lymulus lysate (LAL test) by endotoxin. The LAL test is recognized as the most sensitive and predictive test for the toxic and pyrogenic activity of LPS, since pyrogenicity in vivo is related to the release of the endogenous immune modulators Interleukin-1 (IL-l) and alfa-Tumor necrosis factor (α-TNF), the mediators responsible for the fatalities associated to septic shock. As an in vivo test confirming detoxification of LPS, was then used the Rabbit pyrogen test performed according to the United States Pharmacopeia XXI.
The results obtained by the Limulus (LAL) test, shown in Table V, support the data obtained by measuring the Affinity of the peptides of the invention for the Lipid A moiety of LPS in that they were substantially equivalent to Polymyxin "B" in the inhibition of LPS activity on Limulus. […] Peptide I was, in fact, the one presenting the non complete structure needed for the mimick of Polymyxin "B" as the synthetic peptide analogs II, IV, VI and VII have clearly shown in the previous Table IV. […]

Question: For Polymyxin "B", which LD50 [1] is on record?
Answer: Its LD50 is 2.5 to 5 mg/kg.

Question: And the “Ratio peptide/LipA” value [2]?
Answer: Its value is 1.02 mol/mol.

Question: What about the “Amount of peptide in the complex” value ([2]; average of two experiments) of the same substance?
Answer: The value was 2.69 nmol.

Question: What about the “Zone (mm) of inhibition S. typhi” value (Salmonella Typhi; 0.008 μg/ml) of the same substance?
Answer: Its value is 0 mm.

Question: What about the “Zone (mm) of inhibition S. typhi” value (Salmonella Typhi; 0.04 μg/ml) of the same substance?
Answer: Its value is 1 mm.

Question: What about the “Zone (mm) of inhibition S. typhi” value (Salmonella Typhi; 0.2 μg/ml) of the same substance?
Answer: Its value is 2 mm.

Question: What about the “Zone (mm) of inhibition S. typhi” value (Salmonella Typhi; 1.0 μg/ml) of the same substance?
Answer: Its value is 4 mm.

Question: What about the “Zone (mm) of inhibition H. influenzas” value (Haemophilus influenzae; 0.008 μg/ml) of the same substance?
Answer: Its value is 0 mm.

Question: What about the “Zone (mm) of inhibition H. influenzas” value (Haemophilus influenzae; 0.04 μg/ml) of the same substance?
Answer: The value was 0 mm.

Question: What about the “Zone (mm) of inhibition H. influenzas” value (Haemophilus influenzae; 0.2 μg/ml) of the same substance?
Answer: The value was 3 mm.

Question: What about the “Zone (mm) of inhibition H. influenzas” value (Haemophilus influenzae; 1.0 μg/ml) of the same substance?
Answer: The value was 6 mm.

Question: And the “AFFINITY (Ka)” value ([3]; for Lipid A of LPSbp)?
Answer: Its value is 1.15e+07 L/mol.

Question: What about the “SELECTIVITY (KaANA /KaPCP)” value ([3]; ratio of Ka of peptide to Ka of Polymyxin "B" for Lipid A) of the same substance?
Answer: Its value is 1.0.

Question: What about the 3H-thymidine incorporation ([4]; 12.5 μg/ml) of the same substance?
Answer: The 3H-thymidine incorporation was 2,366 cpm.

Question: What about the 3H-thymidine incorporation ([4]; 25 μg/ml) of the same substance?
Answer: Its 3H-thymidine incorporation is 3,559 cpm.

Question: And the 3H-thymidine incorporation ([4]; 50 μg/ml)?
Answer: The 3H-thymidine incorporation was 2,831 cpm.

Question: And the 3H-thymidine incorporation ([4]; 100 μg/ml)?
Answer: The 3H-thymidine incorporation was 4,128 cpm.

Question: And the “% survival” value ([5]; 24 hs)?
Answer: Its value is 50%.

Question: What about the Mice surviving ([5]; 24 hs) of the same substance?
Answer: Its Mice surviving is 10.

Question: What about the “% survival” value ([5]; 48 hs) of the same substance?
Answer: Its value is 40%.

Question: And the Mice surviving ([5]; 48 hs)?
Answer: Its Mice surviving is 8.

Question: And the “% survival” value ([5]; 72 hs)?
Answer: Its value is 30%.

Question: What about the Mice surviving ([5]; 72 hs) of the same substance?
Answer: The Mice surviving was 6.

Question: What about the “% survival” value ([5]; 96 hs) of the same substance?
Answer: The value was 30%.

Question: And the Mice surviving ([5]; 96 hs)?
Answer: The Mice surviving was 6.

Question: And the “% survival” value ([5]; 120 hs)?
Answer: The value was 30%.

Question: And the Mice surviving ([5]; 120 hs)?
Answer: The Mice surviving was 6.

Question: What about the “% survival” value ([5]; 144 hs) of the same substance?
Answer: Its value is 30%.

Question: What about the Mice surviving ([5]; 144 hs) of the same substance?
Answer: The Mice surviving was 6.

Question: What about the “% survival” value ([5]; 168 hs) of the same substance?
Answer: Its value is 30%.

Question: What about the Mice surviving ([5]; 168 hs) of the same substance?
Answer: The Mice surviving was 6.

Question: And the “Zone (mm) of inhibition V. choleras” value (Vibrio cholerae; 0.008 μg/ml)?
Answer: Its value is 1 mm.

Question: And the “Zone (mm) of inhibition V. choleras” value (Vibrio cholerae; 0.04 μg/ml)?
Answer: Its value is 2 mm.

Question: What about the “Zone (mm) of inhibition V. choleras” value (Vibrio cholerae; 0.2 μg/ml) of the same substance?
Answer: The value was 2.5 mm.

Question: What about the “Zone (mm) of inhibition V. choleras” value (Vibrio cholerae; 1.0 μg/ml) of the same substance?
Answer: Its value is 5 mm.

Question: And the “LAL TEST” value [6]?
Answer: The value was “NEGATIVE”.
